As a reminder, the Kd is the equilibrium constant for the complex coming apart.

These results are taken from article PMC13600695, “Identifying a novel mechanism of L-leucine uptake in Mycobacterium tuberculosis using a chemical genomic approach” (eLife, 2026).

For this experiment, the target named is PpsB (6x His-PpsB) (Mycobacterium tuberculosis, UniProt P9WQE5). As to the kind of experiment: biochemical.
Chain of PpsB (6x His-PpsB) (P9WQE5 whole entry): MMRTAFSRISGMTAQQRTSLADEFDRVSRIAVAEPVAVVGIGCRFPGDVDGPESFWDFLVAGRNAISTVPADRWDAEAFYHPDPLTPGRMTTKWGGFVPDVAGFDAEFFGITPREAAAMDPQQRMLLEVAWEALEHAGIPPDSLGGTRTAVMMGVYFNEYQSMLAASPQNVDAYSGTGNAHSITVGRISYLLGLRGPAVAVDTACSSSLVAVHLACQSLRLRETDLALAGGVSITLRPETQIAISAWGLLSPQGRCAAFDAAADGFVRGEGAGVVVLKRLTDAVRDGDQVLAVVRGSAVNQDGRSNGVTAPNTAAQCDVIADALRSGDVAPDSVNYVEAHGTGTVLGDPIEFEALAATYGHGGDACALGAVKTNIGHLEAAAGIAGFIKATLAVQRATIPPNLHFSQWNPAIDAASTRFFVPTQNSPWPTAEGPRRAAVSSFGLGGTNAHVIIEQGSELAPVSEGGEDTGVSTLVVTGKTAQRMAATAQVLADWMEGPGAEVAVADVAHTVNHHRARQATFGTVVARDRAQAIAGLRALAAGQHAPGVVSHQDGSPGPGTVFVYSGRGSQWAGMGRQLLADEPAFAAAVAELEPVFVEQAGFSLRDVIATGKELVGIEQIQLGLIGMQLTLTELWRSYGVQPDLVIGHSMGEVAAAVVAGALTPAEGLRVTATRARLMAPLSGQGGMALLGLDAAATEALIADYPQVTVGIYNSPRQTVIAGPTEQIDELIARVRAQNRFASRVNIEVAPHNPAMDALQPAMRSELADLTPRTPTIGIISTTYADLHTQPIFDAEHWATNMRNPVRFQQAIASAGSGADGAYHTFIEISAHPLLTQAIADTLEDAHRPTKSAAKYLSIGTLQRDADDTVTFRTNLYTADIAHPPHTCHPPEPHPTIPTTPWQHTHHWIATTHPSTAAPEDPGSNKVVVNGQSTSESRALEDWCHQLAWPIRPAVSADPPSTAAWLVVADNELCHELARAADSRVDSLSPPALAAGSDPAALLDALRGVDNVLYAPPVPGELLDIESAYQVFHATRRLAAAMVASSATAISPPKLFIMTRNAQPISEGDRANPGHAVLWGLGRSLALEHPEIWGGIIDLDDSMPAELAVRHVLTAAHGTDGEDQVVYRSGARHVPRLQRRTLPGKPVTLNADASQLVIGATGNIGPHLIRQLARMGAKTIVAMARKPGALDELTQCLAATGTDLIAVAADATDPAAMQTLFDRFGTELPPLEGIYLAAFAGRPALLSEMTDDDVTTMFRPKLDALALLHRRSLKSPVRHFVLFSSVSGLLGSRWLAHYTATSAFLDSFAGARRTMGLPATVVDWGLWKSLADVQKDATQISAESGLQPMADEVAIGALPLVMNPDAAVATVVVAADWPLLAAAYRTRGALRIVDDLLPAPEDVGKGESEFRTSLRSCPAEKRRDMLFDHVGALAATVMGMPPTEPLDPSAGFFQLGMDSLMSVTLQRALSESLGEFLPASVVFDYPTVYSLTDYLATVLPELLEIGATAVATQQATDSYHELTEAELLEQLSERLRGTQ

Consider `C/C(=N\NC(=N)N)c1cc(NC(=O)CCCCCCCCC(=O)Nc2cc(/C(C)=N/NC(=N)N)cc(/C(C)=N/NC(=N)N)c2)cc(/C(C)=N/NC(=N)N)c1` [semapimod], for which the affinity, expressed as Kd, was 110 nM.
